Measurements as given in patent publication US8592451B2, “Reversible nondepolarizing neuromuscular blockade agents and methods for their use” (Cornell University, priority 2009, dated 2013).

What was measured:
[1] = tested on: twitch of the extensor digitorum; experiment: Neuromuscular blocking potency and duration in anesthetized rhesus monkeys; assay type: in vivo, rhesus monkeys (Macaca mulatta); details: following cumulative dosage, three animals
Method: Experiments were approved by the Institutional Animal Care and Use Committee of Weill Medical College of Cornell University (New York, N.Y.) and of Albany Medical College (Albany, N.Y.), where the studies were conducted. A colony of 10 adult male monkeys (Macaca mulatta) weighing 8-18 kg was studied at ˜6 week intervals. Animals were housed and cared for in accordance with the Guide for Care and Use of Laboratory Animals (National Research Council, Washington, D.C.). They were fed a standard Old World monkey diet, enriched with fruits and vegetables, and other dietary novelties and were followed throughout the study to verify normal health by physical examination, body weight, and clinical laboratory studies (Complete Blood Count, Blood Urea Nitrogen and creatinine, and liver function tests).
On the day of each study, monkeys received ketamine (7-10 mg/kg i.m.) followed by tracheal intubation under topical anesthesia with 4% lidocaine. Ventilation was controlled at 10 mL/kg and 20 breaths/min with isoflurane (1.0-2.0%) and N2O/O2 (2:1 mixture). Ringers lactate was administered at ˜10 ml kg^−1 h^−1. Arterial pressure was monitored from a femoral, superficial tibial, or radial (22 gauge) cannula. Heart rate was measured by tachograph from the arterial pulse wave. Core temperature was kept at 36.5-38.0° C. by warming blankets. Electrocardiogram and pulse oximetry were monitored continuously.
Needle electrodes (25 gauge) transmitting square-wave pulses of 0.2 msec duration at supramaximal voltage which were generated by a Grass S-88 stimulator (Grass Instruments, Quincy, Mass.) were placed at the peroneal nerve at the knee to elicit twitch responses of the extensor digitorum of the foot at 0.15 Hz. A small slip (10-20%) of the tendon was dissected free under sterile technique and tied to a Grass FT 10 force transducer (Grass Instruments, Quincy, Mass.) at a baseline tension of 50 gm. Train-of four stimulation (TOF, 2 Hz for 2 sec) was interposed at appropriate points, especially 1-2 min prior to NMBA dosing and following recovery of twitch to 95% of baseline, where TOF was subsequently evaluated every 1-2 min.
Recordings of circulatory and neuromuscular data were made on a Grass 7B polygraph (Grass Instruments). A baseline period of 15-20 min was allowed for stabilization of recordings prior to dosing.^2
Dose-response curves for twitch blockade by gantacurium, CW 002, CW 011, cisatracurium, CW002-Cys, NB 938-69, NB 1064-81, NB 802-17 (CW 001), NB 832-65, and NB 1163-79, structures of which are all shown above, were generated as follows. […] Successive doses were separated by at least three estimated half lives beyond complete recovery of the previous dose to TOF of 110-120%, which is normal for these monkeys. Only the first one or two doses yielding 5 to 99% blockade were included from any single experiment for computation of dose-response data.
Comparative studies of spontaneous recovery versus antagonism/reversal were done at least 3 estimated half-lives following dose-response studies.
ED 50 and ED 95 were computed from the regression of log dose vs. the logit of percentage blockade of twitch.
CW002-Cys, the L-cysteine adduct of CW 002, was available in limited quantity and was administered in cumulative fashion to three animals to compare approximate potency and duration of effect versus its parent compound CW 002.

[2] = Stability of the CW 002-cysteine adduct (HPLC); assay type: physicochemical
Method: [drawing 58] was prepared in one step from CW 002. CW 002 was dissolved in deionized water to give a solution concentration of 37 mg/ml at a pH of 6.6. A 5 mol % excess of L-cysteine hydrochloride monohydrate was added in one portion at ambient temperature to give a solution pH of 2. Stirring for 12 hours gave complete consumption of CW 002, as observed by HPLC. CW002-Cys was isolated as an off-white solid after reaction mixture lyophilization. Product purity was estimated at 95% by HPLC peak area %.
At low pH and temperature, one new peak was formed on L-cysteine addition as the peak corresponding to CW 002 diminished. This new peak corresponds to the initial peak observed in the in vitro L-cysteine adduction experiments at 37° C. and a pH of 7.4. At elevated temperature and pH, such as conditions used to mimic in vivo reactivity, this initial peak quickly diminishes over time (t½˜60 min) while two new adduct peaks arise secondary to alkaline hydrolysis of the adduct. However, at ambient temperature and a pH of 2, the initial adduct is stable for >24 hours, allowing for isolation of the intermediate.

COc1ccc(C[C@@H]2c3cc(OC)c(OC)cc3CC[N@@+]2(C)CCCOC(=O)CC(SC[C@@H](N)C(=O)O)C(=O)OCCC[N@+]2(C)CCc3cc(OC)c(OC)cc3[C@H]2Cc2ccc(OC)c(OC)c2)cc1OC (stereo partly drawn) [CW002-Cys]
Duration, spontaneous recovery (times approximate) [1]: ~30-35^+++ min
half-life ([2]; 37° C., pH 7.4, read-out: t½ of initial adduct peak (alkaline hydrolysis of the adduct)): ~1 h
time the initial adduct is stable ([2]; ambient temperature, pH of 2): > 24 h
